According to PMC10818380, “Triphenylphosphonium Analogs of Short Peptide Related to Bactenecin 7 and Oncocin 112 as Antimicrobial Agents” (Pharmaceutics, 2024):
Where two headings read alike, the source gives them in different places. Square brackets hold non-standard residues; d marks the D form. Peptide text beside a SMILES is read from it. * marks the point of attachment. X2 = c1ccc([P+](CCCCCCCCCCN*)(c2ccccc2)c2ccccc2)cc1; X1 = c1ccc([P+](CCN*)(c2ccccc2)c2ccccc2)cc1

Legend:
[1] = test system: E. coli SQ171 ΔtolC (A2059G) and JW5503 (∆tolC) (KanS) ermC; assay: Antibacterial activity on agar plates, macrolide-resistant strains; format: cell-based; details: Figure 3
Experimental: (§1) Antibiotic activity was also evaluated against the following strains: E. coli JW5503 ΔtolC (KanS) ermC, modified with the plasmid pKH80 [59], providing resistance to erythromycin due to the expression of ErmC methyltransferase; E. coli SQ171 ΔtolC transformed with the pAM552 plasmid; E. coli SQ171 ΔtolC modified with the pAM552 plasmid with A2059G substitution in the 23S rRNA; E. coli JW1052 ΔmdtH; E. coli JW0912 ΔompF; and E. coli JW0368 ΔsbmA [57]. The procedure was performed as described previously in [33]. In short, Petri dishes filled with LB solid medium containing a selective antibiotic and 1.5% agar were covered with the tested strains. After that, 1 µL of 10 mM water solutions of Bac(1–10), Bac(1–10, R/Y), Bac(1–10, R/Y)-Cn-TPP, TPP-C10-Bac(1–10, R/Y), and Onc112, LEV (25 μg/mL) in water, and ERY (5 mg/mL and 50 mg/mL) in DMSO were applied onto the agar plates. After overnight incubation at 37 °C, the plates were scanned using the ChemiDoc^TM Imagining System (Bio-Rad Laboratories, Hercules, CA, USA) in three channels (Cy2, Cy3, and Cy5). The obtained images were processed in the Image Lab^TM software (Version 6.0.1, Bio-Rad).

B. subtilis = assay: Membrane potential with fluorescent probe diS-C3-(5); format: cell-based; details: diS-C3-(5) fluorescence
Experimental: The membrane potential of B. subtilis was assessed by measuring the fluorescence emitted by the potential-dependent probe, diS-C3-(5). Bacterial cells derived from the overnight culture of B. subtilis were inoculated into a fresh LB medium and allowed to grow for 24 h until reaching an optical density of 0.8 at 600 nm. Subsequently, the bacteria were subjected to a 20-fold dilution in a buffer comprising 100 mM of KCl and 10 mM of Tris, adjusted to a pH of 7.4. Fluorescence measurements were conducted at 670 nm (with excitation at 630 nm) using a Fluorat-02-Panorama fluorimeter manufactured by Lumex Instruments in St. Petersburg, Russia.

HEK293T = assay: cells; format: cell-based, human; details: 72 h
Experimental: (§2) The cytotoxicity of the substances under study was tested using the MTT (3-(4,5-dimethylthiazol-2-yl)-2,5-diphenyltetrazolium bromide) assay with some modifications. The detailed procedure for the MTT assay is given in the Supplementary Materials (Section S5).
(§3) Two thousand five hundred cells per well for the MCF7, HEK293T, and A549 cell lines or 4000 cells per well for the VA13 cell line were plated in 135 µL of DMEM-F12 media with 10% FBS (both Gibco, Waltham, MA, USA) in a 96-well plate and were incubated in a 5% CO2 incubator for the first 16 h, without treatment. Then 15 µL of media-DMSO solutions of the tested substances were added to the cells (the final DMSO concentrations in the media were 1% or less), and the cells were treated for 72 h with 25 nM–50 µM (eight dilutions) of the tested substances (triplicate each). Serial dilutions of DMSO and doxorubicin were used as controls. The MTT reagent (Paneco LLC, Moscow, Russia) was then added to the cells at a final concentration of 0.5 g/L (10× stock solution in PBS was used) and incubated for 2.5 h at 37 °C in the incubator under an atmosphere of 5%
(§4) CO2. The MTT solution was then discarded, and 140 µL of DMSO (PharmaMed LLC, Krasnodar, Russia) was added. The plates were swayed on a shaker (60 rpm) to dissolve the formazan. The absorbance was measured using the VICTOR X5 Multilabel Plate Reader (PerkinElmer, Wa l th a m, MA, USA) at a wavelength of 565 nm (in order to measure formazan concentration). The resu l ts were used to construct a dose-response graph and to estimate IC50 values.
(§5) Figure S11.The dependencies of viability of cells after treatment by tested compounds.
(§6) (1 picture or pasted object on this page, not shown here)

MCF7 = assay: cells; format: cell-based, human
Experimental: as §2, §3, §4, §5, §6

VA13 = assay: cells; format: cell-based, human
Experimental: as §2, §3, §4, §5, §6

A549 = assay: cells
Experimental: as §2, §3, §4, §5, §6

E. coli ΔsbmA = assay: Antibacterial activity on agar plates, ΔsbmA strain versus wild type; format: cell-based; details: Figure 4B
Experimental: as §1

[2] = test system: E. coli ΔompF, E. coli ΔmdtH; assay: Antibacterial activity on agar plates, ΔompF and ΔmdtH strains versus wild type; format: cell-based; details: Figure 4
Experimental: as §1

[3] = HEK293T, MTT, read-out: IC50 (50% inhibition of viability of cells)
[4] = MCF7, 72 h, MTT, read-out: IC50 (50% inhibition of viability of cells)
[5] = VA13, 72 h, MTT, read-out: IC50 (50% inhibition of viability of cells)
[6] = read-out: IC50 (50% inhibition of viability of cells), A549, 72 h, MTT

SMILES	bacterial growth inhibition in macrolide-resistant E. coli strains [1]	effect on membrane potential of B. subtilis (B. subtilis; 1 µM)	IC50 (HEK293T; [3])	IC50 (MCF7; [4])	IC50 (VA13; [5])	IC50 (A549; [6])	antibacterial activity on E. coli ΔsbmA compared with wild-type strain (E. coli ΔsbmA)	effect on membrane potential of B. subtilis (B. subtilis; concentration not given)	growth inhibition of E. coli ΔompF and ΔmdtH compared with wild-type strain [2]	IC50 (HEK293T)	IC50 (MCF7; 72 h)	IC50 (VA13; 72 h)	IC50 (A549; 72 h)
CC[C@H](C)[C@H](NC(=O)[C@H](CCCNC(=N)N)NC(=O)[C@@H](N)CCCNC(=N)N)C(=O)N[C@@H](CCCNC(=N)N)C(=O)N1CCC[C@H]1C(=O)N[C@@H](CCCNC(=N)N)C(=O)N1CCC[C@H]1C(=O)N1CCC[C@H]1C(=O)N[C@@H](Cc1ccc(O)cc1)C(=O)N[C@@H](CC(C)C)C(=O)NCCCCCCCCCC[P+](c1ccccc1)(c1ccccc1)c1ccccc1 [Compound 4, Bac(1–10, R/Y)-C10-TPP] (H-RRIRPRPPYL-X2; N-terminus assumed)	showed bacterial-growth-inhibiting activity	rapid decrease in the membrane potential	3.1 ± 0.5 µM	10 ± 1 µM	12 ± 1 µM	9.2 ± 0.9 µM	–	–	–	–	–	–	–
CC[C@H](C)[C@H](NC(=O)[C@H](CCCNC(=N)N)NC(=O)[C@@H](N)CCCNC(=N)N)C(=O)N[C@@H](CCCNC(=N)N)C(=O)N1CCC[C@H]1C(=O)N[C@@H](CCCNC(=N)N)C(=O)N1CCC[C@H]1C(=O)N1CCC[C@H]1C(=O)N[C@@H](Cc1ccc(O)cc1)C(=O)N[C@@H](CC(C)C)C(=O)NCC[P+](c1ccccc1)(c1ccccc1)c1ccccc1 [Compound 3, Bac(1–10, R/Y)-C2-TPP] (H-RRIRPRPPYL-X1; N-terminus assumed)	showed bacterial-growth-inhibiting activity	–	> 50 µM	> 20 µM	> 50 µM	> 50 µM	a decrease in the antibacterial activity	a decrease in the membrane potential	–	–	–	–	–
CC[C@H](C)[C@H](NC(=O)[C@@H](CCCNC(=N)N)NC(=O)[C@H](CCCNC(=N)N)NC(=O)[C@@H]1CCCN1C(=O)[C@@H]1CCCN1C(=O)[C@H](CCCNC(=N)N)NC(=O)[C@@H]1CCCN1C(=O)[C@H](CCCNC(=N)N)NC(=O)[C@@H]1CCCN1C(=O)[C@H](CC(C)C)NC(=O)[C@H](Cc1ccc(O)cc1)NC(=O)[C@@H]1CCCN1C(=O)[C@@H]1CCCN1C(=O)[C@H](CCCCN)NC(=O)[C@H](CC(=O)O)NC(=O)[C@@H](N)C(C)C)C(=O)N[C@@H](Cc1ccc(O)cc1)C(=O)N[C@@H](CC(N)=O)C(=O)N[C@H](CCCNC(=N)N)C(N)=O [Onc112, reference compound] (H-VDKPPYLPRPRPPR[dR]IYN[dR]-NH2; N-terminus assumed)	showed activity against resistant E. coli bacteria comparable to that demonstrated in the wild type	–	–	–	–	–	a decrease in the antibacterial activity	–	no significant difference in the growth inhibition	> 50 µM	> 20 µM	> 50 µM	> 50 µM
